The target in experiment [1] is T1, prethrombin-2 (Homo sapiens, UniProt P00734, S568A).
T1 construct: the protease domain (T272-E579); made in house
The experiment can be described thus: Stopped-flow rapid kinetics of FPR binding to the active site. The method, then:
(§1) Rapid kinetic experiments were conducted on an Applied Photophysics SX20 stopped-flow spectrometer under conditions of excess ligand. The dead time of the mixing cell for this instrument is 0.5–1 ms. Final concentrations of 50–75 nM of thrombin and meizothrombin, or 200–400 nM of prothrombin, prethrombin-1 and prethrombin-2 were used in a buffer containing 400 mM ChCl, 50 mM Tris, 0.1% PEG8000, pH 8.0, at 15 °C. The solution containing the protein was mixed 1:1 with 60 µL solutions of FPR in the same buffer. FPR is the […] analog of the irreversible active site inhibitor H-D-Phe-Pro-Arg-CH2Cl, for which detailed structural information exists on its interaction with the active site of thrombin[47],[61]. Rapid kinetics of FPR binding were studied using an excitation of 295 nm and a cutoff filter at 320 nm. Baselines were measured by mixing the protein into buffer in the absence of ligand. Each kinetic trace for a given ligand concentration was taken as the average of a minimum of six determinations. Traces were fit to single or double exponentials based on the analysis of residuals using software supplied by Applied Photophysics.
(§2) A detailed discussion of ligand binding mechanisms established by rapid kinetics is given elsewhere[25]–[27]. and is briefly summarized below for the sake of completeness. The relevant kinetic scheme for ligand binding to the active site of a trypsin-like protease or zymogen is1 E^∗k12←⟶k21Ekon[L]←⟶koffE:L E* and E depict the partitioning of the ensemble of pre-existing conformations between those with the active site accessible (E) or inaccessible (E*) to ligand binding. The ligand, L, selectively binds to E with a second order rate of association kon. Under conditions where L is in large excess over the macromolecule, the reaction scheme in eq. 1 gives two independent rates of relaxation to equilibrium according to the expression2 2α1,2=k12+k21+kon[L]+koff±(kon[L]+koff−k12−k21)^2+4k21kon[L]
(§3) The fast relaxation, α1, always increases and eventually grows linearly with [L]. Depending on the sign of the expression koff−k12 , the value of the slow relaxation α2 hyperbolically decreases ( koff>k12 ) or increases ( koff<k12 ) with [L], and remains constant when koff=k12 [25]–[27]. The fast relaxation that eventually grows linearly with [L] reflects the binding event. The slow relaxation monitors the conformational transition associated with binding.
(§4) Resolution of all four independent rate constants in the reaction scheme in eq. 1 requires measurements of both relaxations. […] 2 can be resolved unequivocally. When α2 decreases hyperbolically with [L], the lower limit in the plot, α2(0) , measures the value of koff or the sum k12+k21 , whichever is smaller. The upper limit α2(∞) measures the rate for the E* → E transition k12. […] If only α2 is accessible to experimental measurements, estimation of the E*:E ratio requires additional information from the apparent equilibrium dissociation constant3 Kd,app=koff/kon(1+k21/k12)=Kd(1+k21/k12)
(§5) defined in terms of the intrinsic equilibrium dissociation constant, Kd, and the E*:E ratio k21/k12. Direct and independent determination of Kd,app can be obtained by fluorescence titrations under the same experimental conditions used for stopped-flow measurements. The definition of Kd,app in eq. 3 leads to three useful expressions, i.e.,4 kon≥α22(0)/α2(∞)Kd,app when α2 decreases hyperbolically with [L] as in the case of prothrombin (Fig. 3A),5 kon=α2(0)[α2(∞)+k21]/α2(∞)Kd,app=α2(0)/Kd,app+α2(0)/α2(∞)Kd,appk21 when α2 increases hyperbolically with [L] as in the case of prethrombin-2 (Fig. 3A), and6 kon=α2(0)+k21/Kd,app=α2(0)/Kd,app+1/Kd,appk21 when α2 is independent of [L] as in the case of prethrombin-1 (Fig. 3A). The expression in eq. 4 yields a direct estimate of the lower limit of kon from which the value of k21 and the E*:E ratio can be arrived at with the help of eq. 3 (Table 1). […]

Experiment [2] has as its target T2, prothrombin (Homo sapiens, UniProt P00734, S568A).
T2 construct: Gla-domain (A1-A46), kringle-1 (C65-C143), kringle-2 (C170-C248) and the protease domain (T272-E579); made in house
The description is as above. The method, then: as §1, §2, §3, §4, §5

For experiment [3], the target named is T3, prethrombin-1 (Homo sapiens, UniProt P00734, S568A).
T3 construct: generates the intermediate prethrombin-1 (Pre1) composed of kringle-2 and the protease domain; made in house
The experiment is described as above. How it is done:
as §1, §2, §3, §4, §5

Experiment [4] deals with T1, prethrombin-2. Kind of experiment: Equilibrium intrinsic fluorescence titration of FPR binding. The conditions noted are these: pH 8.0, 15 °C, read-out: Kd,app (direct fluorescence titration). An excerpt:
(§6) defined in terms of the intrinsic equilibrium dissociation constant, Kd, and the E*:E ratio k21/k12. Direct and independent determination of Kd,app can be obtained by fluorescence titrations under the same experimental conditions used for stopped-flow measurements. The definition of Kd,app in eq. 3 leads to three useful expressions, i.e.,4 kon≥α22(0)/α2(∞)Kd,app when α2 decreases hyperbolically with [L] as in the case of prothrombin (Fig. 3A),5 kon=α2(0)[α2(∞)+k21]/α2(∞)Kd,app=α2(0)/Kd,app+α2(0)/α2(∞)Kd,appk21 when α2 increases hyperbolically with [L] as in the case of prethrombin-2 (Fig. 3A), and6 kon=α2(0)+k21/Kd,app=α2(0)/Kd,app+1/Kd,appk21 when α2 is independent of [L] as in the case of prethrombin-1 (Fig. 3A). The expression in eq. 4 yields a direct estimate of the lower limit of kon from which the value of k21 and the E*:E ratio can be arrived at with the help of eq. 3 (Table 1). The expressions in eqs 5 and 6, on the other hand, require assumptions to be made on the value of kon to arrive at the value of k21. In both cases, a lower limit for kon is estimated as kon≥α2(0)/Kd,app .

Experiment [5] has as its target T4, thrombin (Homo sapiens, UniProt P00734, S568A).
T4 construct: the protease domain composed of the A and B chains; made in house
The experiment is described as above. The conditions noted are these: for Kd: thrombin.
Text: as §6

Experiment [6] deals with T2, prothrombin. Described as above. The conditions noted are these: 400 mM ChCl, 50 mM Tris, 0.1% PEG8000, pH 8.0, 15 °C, read-out: Kd,app (direct fluorescence titration).
Text: as §6

Experiment [7] concerns the target T5, meizothrombin (Homo sapiens, UniProt P00734, S568A).
T5 construct: Cleavage at R320 retains the modular structure of prothrombin and generates the active intermediate meizothrombin; Cleavage at R320 generates the active intermediate meizothrombin that retains the modular organization of prothrombin; made in house
The experiment is described as above.
Text: as §6

Experiment [8] has as its target T3, prethrombin-1. The description is as above. The conditions noted are these: pH 8.0, 15 °C, read-out: Kd,app (direct fluorescence titration).
Text: as §6

Experiment [9] deals with T4, thrombin. Kind of experiment: Stopped-flow rapid kinetics of FPR binding to the active site. How it is done: as §1, §2, §3, §4
Experiment [10] concerns the target T5, meizothrombin. The experiment is described as above. How it is done:
as §1, §2, §3, §4

For another experiment, the target named is prothrombin mutant R320W (Homo sapiens, UniProt P00734, R363W). The experiment can be described thus: Limited proteolysis by chymotrypsin in the absence or presence of argatroban. The class given is biochemical. An excerpt: (§7) Aliquots of proteolysis mixtures were quenched whit NuPAGE LDS buffer and analyzed by non-reducing SDS-PAGE (4–12% acrylamide). None of the gels were cropped and originals are available in the Supplementary Information. The relative intensity of intact protein gel bands, after Coomassie staining, was estimated by densitometric analysis and fit to single exponential decay over time.

For the next experiment, the target named is prothrombin mutant R271W (Homo sapiens, UniProt P00734, R314W). The experiment is described as above. The class given is biochemical.
Text: as §7

For experiment [11], the target named is prethrombin-2 (Homo sapiens, UniProt P00734). Kind of experiment: Limited proteolysis by subtilisin in the absence or presence of argatroban. The conditions noted are these: argatroban 500 μM; pH 7.4, 37 °C. It is filed as biochemical.
Text: as §7

The target of experiment [12] is prothrombin (Homo sapiens, UniProt P00734). The description is as above. It is filed as biochemical. The conditions noted are these: argatroban 500 μM.
Text: as §7

Experiment [13] addresses thrombin (Homo sapiens, UniProt P00734). The experiment is described as above. It is filed as biochemical. The conditions noted are these: argatroban 500 μM; pH 7.4, 37 °C.
Text: as §7

Where [14] appears, read: pH 8.0, 15 °C, read-out: Kd,app (direct fluorescence titration).
[15] abbreviates: active site Ser replaced by Ala, E*→E rate, pH 8.0, 15 °C.
The mark [16] stands for this setting: from rate constants, read-out: Kd,app (calculated from eq. 3).

Several values for one entry are separate records, joined by “and”; a condition that tells them apart may be missing. Equal values may be shown once. Entries after “also recorded” stand apart in the source; their conditions may differ.

One may read the kon as the second-order rate constant of association. One may read the koff as the rate constant with which the complex falls apart.

On to `N=C(N)NCCC[C@H](NC(=O)[C@@H]1CCCN1C(=O)[C@H](N)Cc1ccccc1)C(=O)Nc1ccc([N+](=O)[O-])cc1` [FPR, H-D-Phe-Pro-Arg-p-nitroanilide], for which the k12 on prethrombin-2 [1] (prethrombin-2, catalytic Ser replaced by Ala, E*→E rate, pH 8.0, 15 °C) was 170 ± 10 s⁻¹; at prothrombin [2] (catalytic Ser replaced by Ala, E*→E rate, 400 mM ChCl, 50 mM Tris, 0.1% PEG8000, pH 8.0, 15 °C) it was 6.9 ± 0.3 s⁻¹; at prethrombin-1 [3] (prethrombin-1, catalytic Ser replaced by Ala, E*→E rate, pH 8.0, 15 °C), 42 ± 2 s⁻¹; at thrombin [9] (setting [15]), 16 ± 1 s⁻¹; at meizothrombin [10] (setting [15]) it was 8.8 ± 0.5 s⁻¹. In addition, the kon on prethrombin-2 [1] (prethrombin-2, lower estimate from eq. 5, pH 8.0, 15 °C) is no less than 930000 ± 80000 M⁻¹ s⁻¹; at prothrombin [2] (lower estimate from eq. 4, pH 8.0, 15 °C) it was no less than 1.5e+06 ± 100000 M⁻¹ s⁻¹; on prethrombin-1 [3] (prethrombin-1, lower estimate from eq. 6, pH 8.0, 15 °C), no less than 460000 ± 50000 M⁻¹ s⁻¹; on thrombin [9] (pH 8.0, 15 °C), 2.6e+06 ± 300000 M⁻¹ s⁻¹; on meizothrombin [10] (pH 8.0, 15 °C), 2.5e+06 ± 300000 M⁻¹ s⁻¹. Moreover, the koff on prethrombin-2 [1] (prethrombin-2, pH 8.0, 15 °C) was 27 ± 2 s⁻¹; at prothrombin [2] (koff ≥ α2(0), pH 8.0, 15 °C), no less than 45 ± 5 s⁻¹; on prethrombin-1 [3] (prethrombin-1, pH 8.0, 15 °C), 42 ± 2 s⁻¹; at thrombin [9] (pH 8.0, 15 °C) it was 0.6 ± 0.1 s⁻¹; on meizothrombin [10] (pH 8.0, 15 °C), 0.8 ± 0.1 s⁻¹. Also, the Kd at prethrombin-2 [1] (prethrombin-2, under the assumption that kon = 1.5 μM^−1 s^−1, read-out: Kd,app (calculated from eq. 3)) is no less than 29000 nM; at prothrombin [2] (from rate constants, pH 8.0, 15 °C, read-out: Kd,app (calculated from eq. 3)) it was no less than 200000 nM; on prethrombin-1 [3] (prethrombin-1, under the assumption that kon = 1.5 μM^−1 s^−1, read-out: Kd,app (calculated from eq. 3)), no less than 92000 nM; at prethrombin-2 [4] it was 29000 ± 2000 nM; at thrombin [5] (setting [14]), 280 ± 20 nM; at thrombin [5] (read-out: Kd,app from equilibrium measurements of intrinsic fluorescence titration), 280 ± 20 nM. The Kd at prothrombin [6] is 190000 ± 20000 nM; at meizothrombin [7] (setting [14]), 510 ± 40 nM; on meizothrombin [7] (read-out: Kd,app from equilibrium measurements) it was 510 ± 40 nM; at prethrombin-1 [8], 92000 ± 8000 nM; at thrombin [9] (setting [16]) it was 290 ± 20 nM; at meizothrombin [10] (setting [16]) it was 440 ± 30 nM. Also, the k21 at prothrombin [2] (E→E* rate, same buffer, pH 8.0, 15 °C) was no less than 38 ± 3 s⁻¹; on thrombin [9] (E→E* rate, pH 8.0, 15 °C), 3.8 ± 0.8 s⁻¹; on meizothrombin [10] (E→E* rate, pH 8.0, 15 °C), 3.4 ± 0.7 s⁻¹. For the same molecule, the “α2(0), limiting value of the slow relaxation” value on prothrombin [2] (the smaller between koff or the sum k12 + k21) turned out to be 45 ± 5 s⁻¹. For the same molecule, the “higher affinity of thrombin compared to prothrombin” value at thrombin [5] (ratio of Kd,app, thrombin vs prothrombin) amounted to 700 fold.
`CC1CNc2c(cccc2S(=O)(=O)N[C@@H](CCCNC(=N)N)C(=O)N2CC[C@@H](C)C[C@@H]2C(=O)O)C1` (some centres unmarked) [argatroban]: the “kexp of chymotrypsin hydrolysis in the presence of argatroban” value stood at 0.035 ± 0.007 min⁻¹ at prothrombin mutant R320W (R320W 0.1 mg/ml, argatroban 500 μM, chymotrypsin 1:50 (w/w), pH 7.4, 37 °C) and 0.027 ± 0.004 min⁻¹ at prothrombin mutant R271W (R271W 0.1 mg/ml, argatroban 500 μM, chymotrypsin 1:50 (w/w), pH 7.4, 37 °C). Moreover, the “enhancement of the rate of chymotrypsin hydrolysis” value at prothrombin mutant R320W (R320W, presence vs absence of argatroban) was 3 fold and > 3 fold; on prothrombin mutant R271W (R271W, presence vs absence of argatroban), 3 fold and > 3 fold. Moreover, at prethrombin-2 [11], the “effect on subtilisin digestion of prethrombin-2” value is “much less pronounced than that of prothrombin”. The “effect on products of subtilisin proteolysis of prothrombin” value on prothrombin [12] (non-reducing SDS-PAGE) is listed as “prevents accumulation of prethrombin-1”. At prothrombin [12] (pH 7.4, 37 °C), the “effect on the rate of proteolytic digestion of prothrombin by subtilisin” value is reported as “significantly enhanced”. Moreover, at prothrombin [12] (subtilisin 1:1000 (w/w), pH 7.4, 37 °C, densitometry), the “enhancement of the rate of prothrombin digestion by subtilisin” value is reported as greater than 10 fold. For the same molecule, the “effect on subtilisin digestion of thrombin” value on thrombin [13] is on record as “practically absent; also recorded: no effect”.

The values are drawn from article PMC5840343, “Interplay between conformational selection and zymogen activation” (Scientific Reports, 2018).
